# Results from PMC8922281, “Synthesis and In Vitro Biological Evaluation of Quinolinyl Pyrimidines Targeting Type II NADH-Dehydrogenase (NDH-2)” (ACS Infectious Diseases, 2022).
# Tested on: A. baumannii ATCC19606 resistant mutant
# Experiment: microbe, parasite or virus in culture
# Type: cell-based
compound,measurement,setting,value
"CCOc1cc(Nc2ccc3nc(-c4ccc(F)cc4)cc(N)c3c2)nc(N)n1 [Compound 9a, N^6-(2-Amino-6-ethoxypyrimidin-4-yl)-2-(4-fluorophenyl)quinoline-4,6-diamine]",MIC,"Acinetobacter baumannii, ATCC19606, read-out: MIC mutant",4 µg/mL
same,fold increase of MIC,mutant CH5080 vs parent A. baumannii ATCC19606,2
